Patent US11414385B2, “Compounds and methods for treating, detecting, and identifying compounds to treat apicomplexan parasitic diseases” (The University of Chicago, priority 2015, dated 2022)
Where two headings read alike, the source gives them in different places. Each block holds one molecule with its values, some of them ahead of it.

Columns and labels:
[1] = system: T. gondii tachyzoites (RH-YFP strain); assay: In vitro challenge assay for Toxoplasma tachyzoites (RH-YFP in HFF, fluorescence); type: cell-based, Toxoplasma gondii; conditions: Toxoplasma gondii; RH-YFP; read-out: Tachy IC50
Description: Human foreskin fibroblasts (HFF) were cultured on a flat, clear-bottomed, black 96-well plate to 90% to 100% confluence. IMDM (1×, [+] glutamine, [+] 25 mM HEPES, [+] Phenol red, 10% FBS [gibco, Denmark]) was removed from each well and replaced with IMDM-C (1×, [+] glutamine, [+] 25 mM HEPES, [−] Phenol red, 10% FBS)[Gibco, Denmark]). Type I RH parasites expressing Yellow Fluorescent Protein (RH-YFP) were lysed from host cells by double passage through a 27-gauge needle. Parasites were counted and diluted to 32,000/mL in IMDM-C. Fibroblast cultures were infected with 3200 tachyzoites of the Type I RH-YFP strain and returned to incubator at 37° C. for 1-2 hours to allow for infection. Diluted solutions of the compounds were made using IMDM-C, and 20 μl were added to each designated well, with triplicates for each condition. Controls included pyrimethamine/sulfadiazine (current standard of treatment), DMSO only, fibroblast only, and an untreated YFP gradient with 2 fold dilutions of the parasite. Cells were incubated at 37° C. for 72 hours. The plates were read using a fluorimeter (Synergy H4 Hybrid Reader, BioTek) To ascertain the amount of yellow fluorescent protein, in relative fluorescence units (RFU), as a measure of parasite burden after treatment. Compounds were not considered effective or pursued for further analysis if there were no signs of inhibition at 1 μM. Data was collected using Gen5 software and analyzed with Excel.
Protocol adapted from Fomovska, et. al. (18,19). Human foreskin fibroblasts (HFF) were cultured on a flat, clear-bottomed, black 96-well plate to 90% to 100% confluence. IMDM (1×, [+] glutamine, [+] 25 mM HEPES, [+] Phenol red, 10% FBS [gibco, Denmark]) was removed from each well and replaced with IMDM-C (1×, [+] glutamine, [+] 25 mM HEPES, [−] Phenol red, 10% FBS)[gibco, Denmark]). Type I RH parasites expressing Yellow Fluorescent Protein (RH-YFP) were lysed from host cells by double passage through a 27-gauge needle. Parasites were counted and diluted to 32,000/mL in IMDM-C. Fibroblast cultures were infected with 3200 tachyzoites of the Type I RH strain expressing Yellow Fluorescent Protein (RH-YFP) and returned to incubator at 37° C. for 1-2 hours to allow for infection (15). Various concentrations of the compounds were made using IMDM-C, and 20 μl were added to each designated well, with triplicates for each condition. Controls included pyrimethamine/sulfadiazine (current standard of treatment), 0.1% DMSO only, fibroblast only, and an untreated YFP gradient with 2 fold dilutions of the parasite. Cells were incubated at 37° C. for 72 hours. Plates were read using a fluorimeter (Synergy H4 Hybrid Reader, BioTek) to ascertain the amount of yellow fluorescent protein, in relative fluorescence units (RFU), as a measure of parasite burden after treatment. Data was collected using Gen5 software. IC50 was calculated by graphical analysis in Excel.
An initial screening assay of 10 μM, 1 μM, 100 nM, and 10 nM was performed. Compounds were not considered effective or pursued for further analysis if there were no signs of inhibition of tachyzoites at 1 μM. If compounds did appear to be effective at 1 μM, another experiment was conducted to assess effect at 1 μM, 500 nM, 250 nM, 125 nM, 62.5 nM, and 31.25 nM.
Protocol adapted from Fomovska, et. al. (Fomovska A, Huang Q, El Bissati K, Mui E J, Witola W H, Cheng G, et al. Novel N-Benzoyl-2-Hydroxybenzamide Disrupts Unique Parasite Secretory Pathway. Antimicrob Agents Chemother [Internet]. 2012 May [cited 2015 Jul. 8]; 56(5):2666-82; Fomovska A, Wood R D, Mui E, Dubey J P, Ferreira L R, Hickman M R, et al. Salicylanilide inhibitors of Toxoplasma gondii. J Med Chem. 2012 Oct. 11; 55(19):8375-91.). Human foreskin fibroblasts (HFF) were cultured on a flat, clear-bottomed, black 96-well plate to 90% to 100% confluence. […]

[2] = system: P. falciparum strains D6, TM91-C235, W2, C2B; assay: Malaria SYBR Green I-Based Fluorescence (MSF) Assay; type: cell-based, Plasmodium falciparum
Description: Testing of P. falciparum: D6 is a drug sensitive strain from Sierra Leone, C235 is a multi-drug resistant strain from Thailand, W2 is a chloroquine resistant strain from Thailand, and C2B has resistance to a variety of drugs including atovaquone.
D6 is a drug sensitive strain from Sierra Leone, C235 is a multi-drug resistant strain from Thailand, W2 is a chloroquine resistant strain from Thailand, and C2B has resistance to a variety of drugs including atovaquone. These assays were performed as described.
(§1) Compound activity against P. falciparum, a causative agent of malaria, was tested using the Malaria SYBR Green I—Based Fluorescence (MSF) Assay. This; microtiter plate drug sensitivity assay uses the presence of malarial DNA as a measure of parasitic proliferation in the presence of antimalarial drugs or experimental compounds based on modifications of previously described methods by Plouffe et al (20) and Johnson et al. As the intercalation of SYBR Green I dye and its resulting fluorescence is relative to parasite growth, a test compound that inhibits the growth of the parasite will result in a lower fluorescence.
Selected compounds were examined for activity against four strains of P. falciparum: D6 (CDC/Sierra Leone), a drug-sensitive strain readily killed by chloroquine, TM91-C235, a multi-drug resistant strain resistant to chloroquine, W2, a chloroquine resistant strain from Thailand, and C2B has resistance to a variety of drugs including atovaquone.
D6 is a drug sensitive strain from Sierra Leone, C235 is a multi-drug resistant strain from Thailand, W2 is a chloroquine resistant strain from Thailand, and C2B has resistance to a variety of drugs including atovaquone. These assays were performed using standard protocols.
as §1, with “known in the art.” for “by Plouffe et al (20) and Johnson et al.”, “fluorescence. Selected compounds were examined for activity against four strains of P. falciparum: D6 (CDC/Sierra Leone), a drugsensitive strain readily killed by chloroquine, TM91-C235, a multi-drug resistant strain resistant to chloroquine, W2, a chloroquine resistant strain from Thailand, and C2B has resistance to a variety of drugs including atovaquone.” for “fluorescence.”

[3] = Plasmodium falciparum, C2B strain, read-out: SYBR Green C2B IC50
[4] = Plasmodium falciparum, D6 strain, read-out: Pf D6 IC50
[5] = Plasmodium falciparum, D6 strain, read-out: SYBR Green D6 IC50
[6] = Plasmodium falciparum, TM91C235 strain, read-out: SYBR Green C235 IC50
[7] = Plasmodium falciparum, W2 strain, read-out: SYBR Green W2 IC50

SMILES: Cc1[nH]c2c(c(=O)c1-c1ccc(Oc3cccc(OC(F)(F)F)c3)cc1)CCCC2 [AS006/ JAG143, 2-methyl-3-(4 (3-(trifluoromethoxy)phenoxy)phenyl)-5,6,7,8-tetrahydroquinolin-4(1H)-one]
IC50 [1]: 0.06 to 0.08 µM

SMILES: Cc1[nH]c2c(c(=O)c1-c1ccc(Oc3cccc(C(F)(F)F)c3)cc1)CCCC2 [AS012/ JAG144, 2-methyl-3-(4-(3-(trifluoromethyl)phenoxy)phenyl)-5,6,7,8-tetrahydroquinolin-4(1H)-one]
IC50 [1]: 0.3 µM

SMILES: Cc1[nH]c2c(c(=O)c1-c1ccc(Oc3ccc(F)c(Cl)c3)cc1)CCCC2 [AS021/ JAG145, 3-[4-(3-chloro-4-fluorophenoxy)phenyl]-2-methyl-5,6,7,8-tetrahydro-1H-quinolin-4-one]
IC50 [1]: 0.08 µM

SMILES: Cc1[nH]c2c(c(=O)c1-c1ccc(Oc3cc(Cl)cc(Cl)c3)cc1)CCCC2 [AS022, 3-[4-(3,5-dichlorophenoxy)phenyl]-2-methyl-5,6,7,8-tetrahydro-1H-quinolin-4(1H)-one]
IC50 [1]: 0.02 to 0.04 µM

SMILES: Cc1[nH]c2c(c(=O)c1-c1ccc(Oc3ccc4c(c3)OCO4)cc1)CCCC2 [AS032, 3-[4-(2H-1,3-benzodioxo1-5-yloxy)phenyl]-2-methyl-5,6,7,8-tetrahydro-1H-quinolin-4-one]
IC50 [1]: 0.1 to 0.3 µM

SMILES: Cc1[nH]c2c(c(=O)c1-c1ccc(Oc3cc(Cl)nc(Cl)c3)cc1)CCCC2 [AS034/ JAG148, 3-{4-[(2,6-dichloropyridin-4-yl)oxy]phenyl}-2-methyl-5,6,7,8-tetrahydro-1H-quinolin-4-one]
IC50 [1]: 0.1 to 0.5 µM

SMILES: Cc1c(-c2ccc(Oc3ccc(OC(F)(F)F)cc3)cc2)c(=O)c2c(n1C)CCCC2 [JAG023, 1,2-dimethyl-3-(4-(4-(trifluoromethoxy)phenoxy)phenyl)-5,6,7,8-tetrahydroquinolin-4(1H)-one]
IC50 [1]: 1 µM

IC50 [2, 3]: > 20 µM
IC50 [2, 4]: 9.6 µM
IC50 [2, 5]: 9.6 µM
IC50 [2, 6]: > 20 µM
IC50 [2, 7]: > 20 µM
SMILES: Cc1[nH]c2c(c(=O)c1-c1ccc(Oc3ccc(C(=O)O)cc3)nc1)CCCC2 [JAG039, 4-((5-(2-methyl-4-oxo-1,4,5,6,7,8-hexahydroquinolin-3-yl)pyridin-2-yl)oxy)benzoic acid]

IC50 [2, 4]: 6.72 µM
SMILES: Cc1[nH]c2c(c(=O)c1-c1ccc(Oc3ccc(C(=O)O)cc3)cc1)CCCC2 [JAG046, 4-(4-(2-methyl-4-oxo-1,4,5,6,7,8-hexahydroquinolin-3-yl)phenoxy)benzoic acid]

IC50 [2, 4]: 3.75 µM
SMILES: Cc1[nH]c2c(c(=O)c1-c1ccc(Oc3cccc(C(=O)O)c3)cc1)CCCC2 [JAG047, 3-(4-(2-methyl-4-oxo-1,4,5,6,7,8-hexahydroquinolin-3-yl)phenoxy)benzoic acid]

SMILES: Cc1[nH]c2c(c(=O)c1-c1ccc(Oc3ccc(F)cc3)cc1)CCCC2 [JAG58, 3-(4-(4-fluorophenoxy)phenyl)-2-methyl-5,6,7,8-tetrahydroquinolin-4(1H)-one]
IC50 [1]: 0.04 to 0.08 µM

SMILES: Cc1[nH]c2c(c(=O)c1-c1ccc(Oc3ccc(C(F)(F)F)cc3)cc1)CCCC2 [JAG63, 2-methyl-3-(4-(4-(trifluoromethyl)phenoxy)phenyl)-5,6,7,8-tetrahydroquinolin-4(1H)-one]
IC50 [1]: 0.1 to 0.3 µM

SMILES: Cc1[nH]c2c(c(=O)c1-c1ccc(Oc3cccc(F)c3)cc1)CCCC2 [JAG069, 3-(4-(3-Fluorophenoxy)phenyl)-2-methyl-5,6,7,8-tetrahydroquinolin-4(1H)-one]
IC50 [1]: 0.02 µM

SMILES: Cc1[nH]c2c(c(=O)c1-c1ccc(Oc3ccc(Cl)c(Cl)c3)cc1)CCCC2 [JAG084, 3-(4-(3,4-Dichlorophenoxy)phenyl)-2-methyl-5,6,7,8-tetrahydroquinolin-4(1H)-one]
IC50 [1]: 0.04 to 0.08 µM

SMILES: O=C(O)c1[nH]c2c(c(=O)c1-c1ccc(Oc3ccc(OC(F)(F)F)cc3)cc1)CCCC2 [JAG091, 3(4-(4-Trifluoromethoxyphenoxy)phenyl)-2-(carboxylate)-5,6,7,8-tetrahydroquinolin-4(1H)-one]
IC50 [1]: > 1 µM

SMILES: O=c1[nH]c2c(c(=O)n1-c1ccc(Oc3ccccc3)cc1)CCCC2 [JAG095, 3-(4-Phenonxyphenyl)-1,2,3,4,5,6,7,8-octahydroquinazoline-2,4,dione]
IC50 [1]: > 10 µM

SMILES: Cc1[nH]c2c(c(=O)c1-c1ccc(Oc3ccc(OC(F)(F)F)cc3)cc1)CC(C)CC2 (centres unmarked) [JAG106, 3(4-(4-Trifluoromethoxyphenoxy)phenyl)-2,6-dimethyl-5,6,7,8-tetrahydroquinolin-4(1H)-one]
IC50 [1]: ~1 µM

SMILES: Cc1[nH]c2c(c(=O)c1-c1ccc(Oc3ccc(OC(F)(F)F)cc3)cc1)CCC(C)C2 (centres unmarked) [JAG107, 3(4-(4-Trifluoromethoxyphenoxy)phenyl)-2,7-dimethyl-5,6,7,8-tetrahydroquinolin-4(1H)-one]
IC50 [1]: 1 µM

IC50 [2, 3]: 6.75 µM
IC50 [2, 5]: 0.88 µM
IC50 [2, 6]: 4.48 µM
IC50 [2, 7]: 5.36 µM
SMILES: CCn1c(C)c(-c2ccc(Oc3ccccc3)cc2)c(=O)c2ccccc21 [JM10, 1-ethyl-2-methyl-3-(4-phenoxyphenyl)quinolin-4(1H)-one]

IC50 [2, 3]: 0.01 µM
IC50 [2, 5]: 0.03 µM
IC50 [2, 6]: 0.07 µM
IC50 [2, 7]: 0.08 µM
SMILES: Cc1[nH]c2ccccc2c(=O)c1-c1ccc(Oc2ccccc2)cc1 [MJM129, 2-methyl-3-(4-phenoxyphenyl)quinolin-4(1H)-one]

IC50 ([2]; D6 strain, read-out: SYBR Green D6 IC50): 2.88 µM
IC50 [2, 3]: > 20 µM
IC50 [2, 5]: 2.84 µM
IC50 [2, 6]: 13.7 µM
IC50 [2, 7]: 9.25 µM
SMILES: Cc1[nH]c2ccccc2c(=O)c1-c1ccc(Oc2ccc(Cl)cc2)c(O)c1 [RG38, 3-(4-(4-chlorophenoxy)-3-hydroxyphenyl)-2-methylquinolin-4(1H)-one]
